Measured values published in patent publication US20240166627A1, “Terpyridinedione compound or salt thereof, and preparation method and application thereof” (SHENZHEN SALUBRIS PHARMACEUTICALS CO., LTD., priority 2021, published 2024).

Each molecule was assayed on production of TNFα in U937 (assay: Releasing TNFα from U937 induced by LPS). Conditions: Homo sapiens, U-937; PMA-differentiated U937, LPS 100 ng/ml, 4 h; read-out: IC50 value that the compound inhibits the production of TNFα.
Assay type: cell-based
Excerpt: Cytokine regulation in human monocytes has shown that the p38 pathway is the key to the biosynthesis of a plurality of pro-inflammatory cytokines including TNFα, IL-1β and IL-6. Therefore, the inhibition of the p38 MAPK pathway is to reduce inflammatory response by reducing the biosynthesis of the pro-inflammatory cytokines. […] This is a reflection of the effect of the compound in the present invention to facilitate reduction of inflammation, which is useful in the treatment of various diseases, including chronic inflammatory diseases, acute inflammatory diseases, or self-inflammatory diseases. The potency and efficacy of the p38 inhibitor in blocking cytokine production are evaluated using a human U937 cell line.
A 1640 medium with an article number being A10491-01, Gibco; penicillin-streptomycin with an article number being 15140-122, Gibco; fetal bovine serum with an article number being 10099-141C, Gibco; PBS with an article number being 10010-031, Gibco; LPS with an article number being L2880, Sigma; PMA with an article number being P1585, Sigma; dimethyl sulfoxide with an article number being D8418-1L, Sigma; and a TNFα kit with an article number being K151QWD-4, MSD.
A 96-well plate with an article number being 3599, Corning; a plate-vibrating device with an article number being QB-9002, QILINBEIER; a centrifuge with an article number being 5810R, Eppendorf; a carbon dioxide incubator with an article number being 371, Thermo; a counter with an article number being C10281, Gibco; a microscope with an article number being CKX41, OLYMPUS; and an MSD plate reader with an article number being 1201 MESO SECTOR 600, MSD.
U937, ATCC with an article number being CRL-1593.2.
About 2 mg of a drug is weighted; a mother solution is prepared to 10 mM (which is calculated by free alkali) by means of DMSO; and the mother solution is diluted 10-fold to 1 mM, and then is successively diluted 4-fold to 250 μM, 62.5 μM, 15.6 μM, 3.9 μM, 0.97 μM, 0.24 μM, and 0.061 μM. The above series of diluted DMSO drugs is diluted 20-fold as working solutions by using media.
At Day 0, 10000/well inoculation is performed, stimulation is performed for 48 h with 20 ng/ml of PMA, and culture is performed at 37° C., 5% CO2. • At Day 2, 1. Supernatant is removed from differentiated U937, cleaning is performed once with PBS, and 96 μl of the 1640 medium is added. • 2. 2 μl of the compound containing (DMSO with a final concentration being 0.1%), and culture is performed for 30 min at 37° C., 5% CO2. • 3. 2 μl of LPS (a final concentration being 100 ng/ml) is added, cells are stimulated, and culture is performed for 4 h at 37° C., 5% CO2. • 4. Centrifugation is performed, supernatant is taken, and content of TNFα in the supernatant is determined through ELISA.
The content of TNFα corresponding to each well is calculated by using a standard curve in the kit.
The compound IC50 is calculated by using a GraphPad nonlinear fitting formula, and for an experimental result, refer to Table 1.

Row | Structure (SMILES) | IC50
1 | Cc1cnc(-n2cccc(C(C)(C)O)c2=O)cc1-n1c(C)cc(OCc2ccc(Cl)cn2)c(Cl)c1=O [Embodiment 14, 3″-chloro-4″-((5-chloropyridine-2-yl)methoxy)-3-(2-hydroxypropane-2-yl)-5′,6″-dimethyl-2H,2″H-[1,2′:4′,1″-terpyridine]-2,2″-diketone] | 8.21 nM
2 | Cc1cnc(-n2cccc(C(C)O)c2=O)cc1-n1c(C)cc(OCc2ncc(F)cc2F)c(Cl)c1=O (stereo not drawn) [Embodiment 24, 3″-chloro-4″-((3,5-difluoropyridine-2-yl)methoxy)-3-(1-hydroxyethyl)-5′,6″-dimethyl-2H,2″H-[1,2′:4 1″-terpyridine]-2,2″-diketone] | 11.2 nM
3 | Cc1cc(C(C)(C)O)c(=O)n(-c2cc(-n3c(C)cc(OCc4ncc(F)cc4F)c(Cl)c3=O)c(C)cn2)c1 [Embodiment 35, 3″-chloro-4″-((3,5-difluoropyridine-2-yl)methoxy)-3-(2-hydroxypropane-2-yl)-5,5′,6″-trimethyl-2H, 2″H-[1,2′:4′,1″-terpyridine]-2,2″-diketone] | 24.3 nM
4 | Cc1cnc(-n2cccc(C(C)(C)O)c2=O)cc1-n1c(C)cc(OCc2ncccc2Cl)c(Cl)c1=O [Embodiment 19, 3″-chloro-4″-((3-chloropyridine-2-yl)methoxy)-3-(2-hydroxypropane-2-yl)-5′,6″-dimethyl-2H,2″H-[1,2′:4′,1″-terpyridine]-2,2″-diketone] | 8.11 nM
5 | Cc1cnc(-n2cccc(C(C)(C)O)c2=O)cc1-n1c(C)cc(OCc2ccc(F)cn2)c(Cl)c1=O [Embodiment 21, 3″-chloro-4″-((5-fluoropyridine-2-yl)methoxy)-3-(2-hydroxypropane-2-yl)-5′,6″-dimethyl-2H,2″H-[1,2′:4′,1″-terpyridine]-2,2″-diketone] | 7.11 nM
6 | Cc1cnc(-n2cccc(C(C)(C)O)c2=O)cc1-n1c(C)cc(OCc2ccc(C#N)cc2F)c(Cl)c1=O [Embodiment 8, 4-(((3″-chloro-3-(2-hydroxypropane-2-yl)-5′,6″-dimethyl-2,2″-dioxo-2H,2″H-[1,2 2′:4′,1″-terpyridine]-4″-yl)oxy)methyl)-3-fluorobenzonitrile] | 14.4 nM
7 | Cc1cnc(-n2cccc(C(C)(C)O)c2=O)cc1-n1c(C)cc(OCc2ncc(C3CC3)cc2F)c(Cl)c1=O [Embodiment 27, 3″-chloro-4″-((3-fluoro-5-cyclopropylpyridine-2-yl)methoxy)-3-(2-hydroxypropane-2-yl)-5′,6″-dimethyl-2H,2″H-[1,2′:4′,1″-terpyridine]-2,2″-diketone] | 16.6 nM
8 | Cc1cnc(-n2cccc(C(C)(C)O)c2=O)cc1-n1c(C)cc(OCc2cccnc2)c(Cl)c1=O [Embodiment 30, 3″-chloro-3-(2-hydroxypropane-2-yl)-5′,6″-dimethyl-4″-((pyridin-3-yl)methoxy)-2H,2″H-[1,2′:4′,1″-terpyridine]-2,2″-diketone] | 11.9 nM
9 | Cc1cnc(-n2ccc(C)c(C(C)(C)O)c2=O)cc1-n1c(C)cc(OCc2ncc(F)cc2F)c(Cl)c1=O [Embodiment 29, 3″-chloro-4″-((3,5-difluoropyridine-2-yl)methoxy)-3-(2-hydroxypropane-2-yl)-4,5′,6″-trimethyl-2H, 2″H-[1,2′:4′,1″-terpyridine]-2,2″-diketone] | 15.1 nM

Stronger by IC50, values ahead:

Row | IC50 | Structure (SMILES)
10 | 6.06 nM | Cc1cnc(-n2cccc(C(C)(C)O)c2=O)cc1-n1c(C)cc(OCc2ncc(F)cc2Cl)c(Cl)c1=O [Embodiment 25, 3″-chloro-4″-((3-chloro-5-fluoropyridine-2-yl)methoxy)-3-(2-hydroxypropane-2-yl)-5′,6″-dimethyl-2H,2″H-[1,2′:4′,1″-terpyridine]-2,2″-diketone]
11 | 5.53 nM | Cc1cnc(-n2cccc(C(C)(C)O)c2=O)cc1-n1c(C)cc(OCc2ccc(F)c(F)c2)c(Cl)c1=O [Embodiment 23, 3″-chloro-4″-((3,4-difluorobenzyl)oxy)-3-(2-hydroxypropane-2-yl)-5′,6″-dimethyl-2H,2″H-[1,2′:4′,1″-terpyridine]-2,2″-diketone]
12 | 5.09 nM | Cc1cnc(-n2cccc(C(C)(C)O)c2=O)cc1-n1c(C)cc(OCc2ncccc2C)c(Cl)c1=O [Embodiment 12, 3″-chloro-4″-((3-methylpyridin-2-yl)methoxy)-3-(2-hydroxypropane-2-yl)-5′,6″-dimethyl-2H,2″H-[1,2′:4′,1″-terpyridine]-2,2″-diketone]
13 | 4.26 nM | Cc1cnc(-n2cccc(C(C)(C)O)c2=O)cc1-n1c(C)cc(OCc2c(F)cccc2C#N)c(Cl)c1=O [Embodiment 13, 2-(((3″-chloro-3-(2-hydroxypropane-2-yl)-5′,6″-dimethyl-2,2″-dione-2H,2″H-[1,2′:4′,1″-terpyridine]-4″-yl)oxy)methyl)-3-fluorobenzonitrile]
14 | 4.05 nM | Cc1cnc(-n2cccc(C(C)(C)O)c2=O)cc1-n1c(C)cc(OCc2ncc(Cl)cc2F)c(Cl)c1=O [Embodiment 5, 3″-chloro-4″-((3-fluoro-5-chloropyridine-2-yl)methoxy)-3-(2-hydroxypropane-2-yl)-5′,6″-dimethyl-2H,2″H-[1,2′:4′,1″-terpyridine]-2,2″-diketone]
15 | 2.72 nM | Cc1cnc(-n2cccc(C(C)(C)O)c2=O)cc1-n1c(C)cc(OCc2ccc(Cl)cc2F)c(Cl)c1=O [Embodiment 9, 3″-chloro-4″-((4-chloro-2-fluorobenzyl)oxy)-3-(2-hydroxypropane-2-yl)-5′,6″-dimethyl-2H,2″H-[1,2′:4′,1″-terpyridine]-2,2″-diketone]
16 | 2.39 nM | Cc1cnc(-n2cccc(C(C)(C)O)c2=O)cc1-n1c(C)cc(OCc2cc(F)ccc2F)c(Cl)c1=O [Embodiment 18, 3″-chloro-4″-((2,5-difluorobenzyl)oxy)-3-(2-hydroxypropane-2-yl)-5′,6″-dimethyl-2H,2″H-[1,2′:4′,1″-terpyridine]-2,2″-diketone]
17 | 2.05 nM | Cc1cnc(-n2cccc(C(C)(C)O)c2=O)cc1-n1c(C)cc(OCc2ccc(F)cc2F)c(Cl)c1=O [Embodiment 4, 3″-chloro-4″-((2,4-difluorobenzyl)oxy)-3-(2-hydroxypropane-2-yl)-5′,6″-dimethyl-2H,2″H-[1,2′:4′,1″-terpyridine]-2,2″-diketone]
18 | 1.6 nM | Cc1cnc(-n2cccc(C(C)(C)O)c2=O)cc1-n1c(C)cc(OCc2c(F)cccc2F)c(Cl)c1=O [Embodiment 15, 3″-chloro-4″-((2,6-difluorophenyl)methoxy)-3-(2-hydroxypropane-2-yl)-5′,6″-dimethyl-2H,2″H-[1,2′:4′,1″-terpyridine]-2,2″-diketone]
